Values joined by “and” are separate entries in the source; they are usually repeats but may differ in a detail not shown here. Equal values may be shown once. ± gives the uncertainty stated by the source.
Experiments:
[1] = xn = mol fraction of the nth substance listed

CC(O)CCO (stereo not given)
101 kPa
Conditions | viscosity
298.15 K | 96.7 ± 2.2 mPa·s and 96.8 ± 1.2 mPa·s
303.15 K | 69.7 ± 1.5 mPa·s and 70.93 ± 0.56 mPa·s
308.15 K | 51.8 ± 1.1 mPa·s and 53.72 ± 0.28 mPa·s
313.15 K | 40 ± 0.8 mPa·s and 40.13 ± 0.26 mPa·s
318.15 K | 29.9 ± 0.6 mPa·s and 31.22 ± 0.2 mPa·s

CCCCCCC(C)O (stereo not given)
viscosity
Conditions | 298.15 K | 303.15 K | 308.15 K
101 kPa | 6.49 ± 0.07 mPa·s | – | –
101.3 kPa | 5.929 ± 0.13 mPa·s and 5.956 ± 0.069 mPa·s | 4.794 ± 0.11 mPa·s and 4.803 ± 0.058 mPa·s | 3.909 ± 0.095 mPa·s and 3.907 ± 0.047 mPa·s
101.33 kPa | – | 4.804 ± 0.054 mPa·s | –

CCCCCCn1cc[n+](C)c1.[Cl][Fe-]([Cl])([Cl])[Cl]
101 kPa
Conditions | viscosity [mPa·s]
293.15 K | 73.92 ± 3.2
298.15 K | 58.96 ± 2.5
303.15 K | 47.89 ± 2
308.15 K | 39.56 ± 1.7
313.15 K | 33.07 ± 1.4
318.15 K | 28.06 ± 1.2
323.15 K | 24.02 ± 1

CCOC(=O)C(Br)CC (stereo not given)
Conditions | viscosity [mPa·s]
303.15 K, 101 kPa | 1.529 ± 0.0092

CCn1cc[n+](C)c1C.O=S(=O)([N-]S(=O)(=O)C(F)(F)F)C(F)(F)F
101.3 kPa
Conditions | viscosity [mPa·s]
293.15 K | 88.09 ± 1.9
298.15 K | 69.84 ± 1.5
303.15 K | 56.37 ± 1.2
308.15 K | 46.1 ± 0.96
313.15 K | 38.26 ± 0.8
318.15 K | 32.15 ± 0.67
323.15 K | 27.31 ± 0.57

CCn1cc[n+](CCOC)c1.O=S(=O)([O-])C(F)(F)F
101.33 kPa
Conditions | viscosity [mPa·s]
293.15 K | 92.53 ± 2.9
298.15 K | 72.51 ± 2
303.15 K | 57.87 ± 1.5
308.15 K | 47.34 ± 1.2
313.15 K | 39.02 ± 1
318.15 K | 32.59 ± 0.85

CN(C)CCN(C)C
100 kPa
Conditions | viscosity [mPa·s]
293.15 K | 0.615 ± 0.06
303.15 K | 0.557 ± 0.06
313.15 K | 0.493 ± 0.06
323.15 K | 0.439 ± 0.06

COCCn1cc[n+](C)c1.C[C@@H](O)[C@H](N)C(=O)[O-]
100 kPa
Conditions | viscosity [mPa·s]
298.15 K | 900.5 ± 88
303.15 K | 625.4 ± 54
308.15 K | 362.1 ± 24
313.15 K | 260 ± 15
318.15 K | 184.4 ± 8.3
323.15 K | 136.8 ± 4.8

COS(=O)(=O)[O-].Cn1cc[n+](C)c1
viscosity [mPa·s]
Conditions | 298.15 K | 303.15 K | 308.15 K | 313.15 K
100 kPa | 93.4 ± 2.4 | – | – | –
101 kPa | 78 ± 4.7 | 61.9 ± 3.7 | 49.9 ± 3 | 40.9 ± 2.5

NCCNCCNCCN
101 kPa
Conditions | viscosity [mPa·s]
303.15 K | 25.41 ± 2.5
313.15 K | 15.31 ± 1.5
323.15 K | 9.867 ± 0.99

O=C(Cl)c1ccccc1
Conditions | viscosity [mPa·s]
303.15 K, 101 kPa | 1.244 ± 0.015

[2H]OCCCCC
Conditions | viscosity [mPa·s]
306.3 K, 101.33 kPa | 2.685 ± 0.16

c1ccncc1
viscosity
Conditions | 293.15 K | 298 K | 298.15 K | 298.25 K | 303.15 K | 308.15 K | 313.15 K | 318.15 K | 323.15 K
100 kPa | 0.9801 ± 0.012 mPa·s | – | 0.9155 ± 0.011 mPa·s | – | 0.8568 ± 0.011 mPa·s | 0.8032 ± 0.01 mPa·s | 0.7546 ± 0.0096 mPa·s | 0.7103 ± 0.0092 mPa·s | 0.6698 ± 0.0088 mPa·s
101 kPa | – | – | – | – | – | 0.76 ± 0.02 mPa·s and 0.7914 ± 0.0073 mPa·s | 0.714 ± 0.007 mPa·s (2×) and 0.724 ± 0.013 mPa·s | 0.6939 ± 0.0067 mPa·s | 0.645 ± 0.0097 mPa·s and 0.6248 ± 0.017 mPa·s
101.3 kPa | – | 0.882 ± 0.012 mPa·s | 0.903 ± 0.024 mPa·s | – | – | 0.75 ± 0.02 mPa·s | – | 0.675 ± 0.018 mPa·s | –
101.33 kPa | – | – | – | 0.88 ± 0.044 mPa·s | 0.828 ± 0.022 mPa·s | 0.78 ± 0.009 mPa·s | 0.8 ± 0.04 mPa·s | 0.66 ± 0.008 mPa·s | –

NCCNCCNCCN + O
viscosity [mPa·s], [1]
Conditions | 303.15 K | 313.15 K | 323.15 K
100 kPa, x1 = 0.006 | – | 0.78 ± 0.05 | –
100 kPa, x1 = 0.014 | – | 0.98 ± 0.06 | –
100 kPa, x1 = 0.03 | – | 1.69 ± 0.1 | –
100 kPa, x1 = 0.076 | – | 6.61 ± 0.41 | –
101 kPa, x1 = 0.0299 | 2.243 ± 0.23 | 1.716 ± 0.17 | 1.359 ± 0.14
101 kPa, x1 = 0.0502 | 5.399 ± 0.54 | 3.454 ± 0.35 | 2.481 ± 0.25
101 kPa, x1 = 0.0759 | 11.81 ± 1.2 | 7.786 ± 0.78 | 5.213 ± 0.52
101 kPa, x1 = 0.1097 | 22.1 ± 2.2 | 13.05 ± 1.3 | 8.624 ± 0.86
101 kPa, x1 = 0.156 | 38.42 ± 3.8 | 22.22 ± 2.2 | 14.34 ± 1.4
101 kPa, x1 = 0.2233 | 60.39 ± 6 | 32.27 ± 3.2 | 20.32 ± 2
101 kPa, x1 = 0.3302 | 82.48 ± 8.3 | 42.63 ± 4.3 | 26.01 ± 2.6
101 kPa, x1 = 0.5259 | 75.67 ± 7.6 | 38.19 ± 3.8 | 21.84 ± 2.2
101 kPa, x1 = 0.7007 | 50.89 ± 5.1 | 27.24 ± 2.7 | 15.21 ± 1.5
101 kPa, x1 = 0.7994 | 39.76 ± 4 | 21.64 ± 2.2 | 12.67 ± 1.3
101 kPa, x1 = 0.9242 | 31.35 ± 3.1 | 16.13 ± 1.6 | 10.61 ± 1.1

c1c[nH]cn1 + O=C1CCCCCN1
[1], 101 kPa, x2 = 0.5
Conditions | viscosity [mPa·s]
303.2 K | 49.07 ± 0.68
313.1 K | 25 ± 0.41
323.1 K | 16.2 ± 0.22

CC(O)CCO (stereo not given) + O=C1CCCN1
Conditions | viscosity [mPa·s]
[1], 308.15 K, 101 kPa, x2 = 0.7935 | 11.85 ± 0.3

c1ccncc1 + OCC(O)CO
[1], 101 kPa
Conditions | viscosity [mPa·s]
298.15 K, x1 = 0.6001 | 17.25 ± 0.082
298.15 K, x1 = 0.8001 | 3.155 ± 0.016
303.15 K, x1 = 0.4 | 66.75 ± 0.36
308.15 K, x1 = 0.1 | 275.5 ± 6.5
313.15 K, x1 = 0.2001 | 116.5 ± 1.4
313.15 K, x1 = 0.4 | 36.35 ± 0.17

CCCCCCC(C)O (stereo not given) + c1ccccc1
viscosity [mPa·s], [1], 101 kPa
Conditions | 298.15 K | 303.15 K
x2 = 0.0555 | 5.871 ± 0.031 | 4.689 ± 0.026
x2 = 0.1239 | 5.076 ± 0.028 | 4.101 ± 0.023
x2 = 0.1912 | 4.353 ± 0.024 | 3.577 ± 0.02
x2 = 0.2386 | 3.886 ± 0.022 | 3.224 ± 0.018
x2 = 0.3153 | 3.181 ± 0.018 | 2.703 ± 0.016
x2 = 0.4353 | 2.241 ± 0.014 | 2.018 ± 0.013
x2 = 0.4865 | 1.923 ± 0.012 | 1.764 ± 0.011
x2 = 0.6072 | 1.318 ± 0.01 | 1.264 ± 0.009
x2 = 0.6941 | 1.008 ± 0.008 | 0.986 ± 0.008
x2 = 0.7432 | 0.876 ± 0.008 | 0.876 ± 0.008
x2 = 0.8011 | 0.761 ± 0.008 | 0.754 ± 0.008
x2 = 0.8599 | 0.693 ± 0.007 | 0.667 ± 0.007
x2 = 0.909 | 0.655 ± 0.007 | 0.608 ± 0.007
x2 = 0.9541 | 0.637 ± 0.007 | 0.58 ± 0.007

O=C(Cl)c1ccccc1 + c1ccccc1
[1], 303.15 K, 101 kPa
Conditions | viscosity [mPa·s]
x2 = 0.1255 | 1.176 ± 0.015
x2 = 0.2441 | 1.108 ± 0.014
x2 = 0.3564 | 1.04 ± 0.013
x2 = 0.4627 | 0.9726 ± 0.012
x2 = 0.5637 | 0.9048 ± 0.011
x2 = 0.6596 | 0.8369 ± 0.01
x2 = 0.7509 | 0.7688 ± 0.0097
x2 = 0.8379 | 0.7005 ± 0.0089
x2 = 0.9208 | 0.632 ± 0.008

c1c[nH]cn1 + c1ccccc1
viscosity [mPa·s], [1], 101 kPa
Conditions | x1 = 0.003214 | x1 = 0.006433 | x1 = 0.01278 | x1 = 0.03561 | x1 = 0.03951
303.15 K | 0.57 ± 0.018 | 0.578 ± 0.018 | 0.595 ± 0.018 | – | –
323.15 K | – | – | 0.457 ± 0.016 | 0.505 ± 0.017 | 0.513 ± 0.017

c1ccncc1 + c1ccccc1
viscosity [mPa·s], [1], 101 kPa
Conditions | x1 = 0.3943 | x1 = 0.5905 | x1 = 0.7944 | x1 = 0.8965 | x2 = 0.2 | x2 = 0.4 | x2 = 0.6 | x2 = 0.8
293.15 K | – | – | – | – | 0.893 ± 0.015 | 0.832 ± 0.014 | 0.77 ± 0.013 | 0.709 ± 0.012
298.15 K | 0.7169 ± 0.012 | 0.7726 ± 0.013 | 0.8345 ± 0.013 | 0.8601 ± 0.014 | – | – | – | –
313.15 K | – | – | – | – | 0.678 ± 0.012 | 0.632 ± 0.011 | 0.585 ± 0.01 | 0.538 ± 0.009

c1cn[nH]c1 + c1ccccc1
viscosity [mPa·s], [1], 101 kPa
Conditions | x1 = 0.02244 | x1 = 0.04519 | x1 = 0.05005 | x1 = 0.1006
303.15 K | 0.577 ± 0.021 | 0.597 ± 0.022 | 0.594 ± 0.022 | 0.627 ± 0.023
323.15 K | 0.449 ± 0.018 | 0.46 ± 0.019 | 0.462 ± 0.019 | –

Source: the CheMixHub viscosity set
